Measured values reported in ChEMBL document CHEMBL3608308, “Design, synthesis and antiproliferative activity of novel heterobivalent hybrids based on imidazo[2,1-b][1,3,4]thiadiazole and imidazo[2,1-b][1,3]thiazole scaffolds” (Eur J Med Chem, 2015).

How the values were obtained:
Format in all cases: functional
CCRF-CEM = assay: Antiproliferative activity against human CEM cells assessed as inhibition of cell proliferation incubated for 3 days by Coulter counter based assay; settings: 72 h
HeLa = assay: Antiproliferative activity against human HeLa cells assessed as inhibition of cell proliferation incubated for 4 days by Coulter counter based assay; settings: 96 h
FM3A = assay: Antiproliferative activity against mouse FM3A cells assessed as inhibition of cell proliferation incubated for 2 days by Coulter counter based assay; settings: 48 h
L1210 = assay: Antiproliferative activity against mouse L1210 cells assessed as inhibition of cell proliferation incubated for 2 days by Coulter counter based assay; settings: L1210, 48 h

Row | Structure (SMILES) | IC50 (CCRF-CEM) [µM] | IC50 (HeLa) [µM] | IC50 (FM3A) [µM] | IC50 (L1210) [µM]
1 | Cc1ccc(-c2nn3cc(-c4cccc(N)c4)nc3s2)cc1 | 5.9 | 8.9 | 5.8 | 4.8
2 | COc1ccc(-c2nn3cc(-c4cccc(N)c4)nc3s2)cc1OC | 14 | 26 | 13 | 16
3 | C=C(Br)C(=O)Nc1cccc(-c2cn3nc(Cc4ccccc4)sc3n2)c1 | 4.2 | 4.5 | 3 | 3
4 | C=C(Br)C(=O)Nc1cccc(-c2cn3c(-c4ccccc4)csc3n2)c1 | 2.8 | 3.4 | 1.3 | 1.3
5 | C=C(Br)C(=O)Nc1cccc(-c2cn3nc(-c4ccc(CC)cc4)sc3n2)c1 | 3.4 | 3.2 | 3.3 | 2.2
6 | C=C(Br)C(=O)Nc1cccc(-c2cn3nc(Cc4ccc(OC)cc4)sc3n2)c1 | 2.3 | 2.3 | 0.85 | 1.4
7 | C=C(Br)C(=O)Nc1cccc(-c2cn3nc(Cc4cccc(OC)c4)sc3n2)c1 | 3.1 | 2.5 | 1.1 | 2
8 | C=C(Br)C(=O)Nc1cccc(-c2cn3c(-c4ccc(Cl)cc4)csc3n2)c1 | 2.2 | 3 | 1.1 | 1.9
9 | C=C(Br)C(=O)Nc1cccc(-c2cn3nc(Cc4ccc(Cl)cc4)sc3n2)c1 | 3.3 | 2.7 | 1.1 | 2.3
10 | Nc1cccc(-c2cn3c(-c4ccccc4)csc3n2)c1 | 29 | 60 | 34 | 85
11 | COc1cccc(Cc2nn3cc(-c4cccc(N)c4)nc3s2)c1 | 40 | 24 | 10 | 21
12 | C=C(Br)C(=O)Nc1cccc(-c2cn3nc(-c4ccc(OCC)cc4)sc3n2)c1 | 1.4 | 1.1 | 1.1 | 0.79
13 | COc1cccc(-c2nn3cc(-c4cccc(N)c4)nc3s2)c1 | > 250 | 230 | 29 | > 250
14 | C=C(Br)C(=O)Nc1cccc(-c2cn3nc(-c4ccc(C)cc4)sc3n2)c1 | 1.7 | 2 | 1.2 | 0.92
15 | Nc1cccc(-c2cn3nc(-c4cccs4)sc3n2)c1 | > 250 | > 250 | > 250 | > 250
16 | CCOc1ccc(-c2nn3cc(-c4cccc(N)c4)nc3s2)cc1 | > 250 | 94 | ≥ 250 | 155
17 | C=C(Br)C(=O)Nc1cccc(-c2cn3nc(-c4cccc(OC)c4)sc3n2)c1 | 1.2 | 1.1 | 0.5 | 0.58
